The supplement of paper PMC10307832

Experiments:
Assay in all cases: relative viability (nuclei count vs DMSO), 5 days (fraction); higher = more cells survive
[1] = compound: CC(C)C[C@H](NC(=O)[C@H](Cc1ccccc1)NC(=O)c1cnccn1)B(O)O [Bortezomib] + Cc1nc(NC(=O)N2CCC[C@H]2C(N)=O)sc1-c1ccnc(C(C)(C)C(F)(F)F)c1 [Alpelisib] (partner 2 µM)
Outline: (§1)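 Cells from lung cancer lines were seeded into 1536-well plates and, one day later, dosed by pin tool. Treatments were either a single drug or a fixed dose of an anchor drug with five library-drug doses (not always all listed) in √10 steps. After 5 days, nuclei were stained in a one-step fixation (final 0.05% Triton X-100, 1% formaldehyde, 1 ug/ml Hoechst) and counted on 4× images, and relative viability is the treated-to-vehicle nuclei ratio, as the median of duplicate plates.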

[2] = compound: CC1=CC(=NN1)NC2=CC(=NC(=N2)/C=C/C3=CC=CC=C3)N4CCN(CC4)C + C[C@]1(O)C[C@@H](c2nc(-c3ccc4ccc(-c5ccccc5)nc4c3)c3c(N)nccn32)C1 [Linsitinib] (partner 1 µM)
Outline: as §1

[3] = compound: COC1=CC(c2cc3ccccc3[nH]2)=N/C1=C\c1[nH]c(C)cc1C [Obatoclax] + O=C(CCCCCCC(=O)Nc1ccccc1)NO [Vorinostat] (partner 1 µM)
Outline: as §1

[4] = compound: CC1=CC(=NN1)NC2=CC(=NC(=N2)/C=C/C3=CC=CC=C3)N4CCN(CC4)C + CC1(C)CCC(c2ccc(Cl)cc2)=C(CN2CCN(c3ccc(C(=O)NS(=O)(=O)c4ccc(N[C@H](CCN5CCOCC5)CSc5ccccc5)c(S(=O)(=O)C(F)(F)F)c4)cc3)CC2)C1 [Navitoclax] (partner 0.5 µM)
Outline: as §1

Row | Cell Line | relative viability ([1]; first compound 0.0002 µM) | relative viability ([1]; first compound 0.000632 µM) | relative viability ([1]; first compound 0.002 µM) | relative viability ([1]; first compound 0.006325 µM) | relative viability ([1]; first compound 0.02 µM) | relative viability ([2]; first compound 0.08 µM) | relative viability ([2]; first compound 0.253 µM) | relative viability ([2]; first compound 0.8 µM) | relative viability ([2]; first compound 2.53 µM) | relative viability ([2]; first compound 8 µM) | relative viability ([3]; first compound 0.01 µM) | relative viability ([3]; first compound 0.03162 µM) | relative viability ([3]; first compound 0.1 µM) | relative viability ([3]; first compound 0.3162 µM) | relative viability ([3]; first compound 1 µM) | relative viability ([4]; first compound 0.08 µM) | relative viability ([4]; first compound 0.253 µM) | relative viability ([4]; first compound 0.8 µM) | relative viability ([4]; first compound 2.53 µM) | relative viability ([4]; first compound 8 µM)
1 | LCLC-103H | 0.955 | 0.893 | 1.02 | 1.07 | 0.166 | 1.16 | 1.09 | 1.13 | 1.12 | 0.809 | 0.791 | 0.676 | 0.715 | 0.756 | 0.799 | – | – | – | – | –
2 | LK-2 | – | 1.01 | 0.263 | 0.256 | 0.27 | 0.522 | 0.876 | 0.75 | 0.31 | 0.104 | 0.3 | 0.247 | 0.253 | 0.296 | 0.411 | 0.821 | 1.03 | 0.711 | 0.247 | 0.133
3 | NCI-H358 | 0.782 | 0.873 | 0.613 | 0.161 | 0.162 | 0.733 | 0.736 | 0.331 | 0.14 | 0.11 | 0.661 | 0.73 | 0.595 | 0.183 | 0.141 | – | – | – | – | –
4 | NCI-H522 | – | – | – | – | – | – | – | – | – | – | 0.891 | 0.794 | 0.793 | 0.967 | 0.973 | – | – | – | – | –
5 | NCI-H661 | 0.582 | 0.501 | 0.625 | 0.602 | 0.216 | 0.618 | 0.579 | 0.663 | 0.44 | 0.182 | 0.734 | 0.789 | 0.81 | 0.711 | 0.552 | – | – | – | – | –
6 | NCI-H1299 | 1.02 | 1.07 | 1.08 | 0.89 | 0.304 | 0.986 | 0.967 | 1.03 | 0.754 | 0.295 | – | – | – | – | – | 1.04 | 1.13 | 1.03 | 0.863 | 0.243
7 | NCI-H1563 | 0.882 | 0.848 | 0.844 | 0.505 | 0.489 | 1.23 | 1.34 | 1.18 | 0.718 | 0.514 | – | – | – | – | – | – | – | – | – | –
8 | NCI-H1648 | – | – | – | – | – | – | – | – | – | – | 0.557 | 0.479 | 0.739 | 0.357 | 0.822 | – | – | – | – | –
9 | NCI-H1650 | – | – | – | – | – | – | – | – | – | – | 0.494 | 0.661 | 0.61 | 0.417 | 0.301 | 1.28 | 1.43 | 0.902 | 0.358 | 0.107
10 | NCI-H1703 | 0.32 | 0.256 | 0.131 | 0.134 | 0.0835 | 0.67 | 0.466 | 1.06 | 0.148 | 0.0677 | – | – | – | – | – | 0.929 | 0.965 | 0.283 | 0.134 | 0.108
11 | NCI-H1792 | 0.576 | 0.646 | 0.579 | 0.714 | 0.319 | 0.58 | 0.56 | 0.513 | 0.316 | 0.112 | – | – | – | – | – | 0.558 | 0.599 | 0.611 | 0.437 | 0.102
12 | NCI-H2170 | 0.637 | 0.687 | 0.904 | 0.232 | 0.14 | – | – | – | – | – | 0.698 | 0.88 | 0.742 | 0.799 | 0.782 | 0.588 | 0.574 | 0.619 | 0.248 | 0.159
13 | NCI-H2342 | – | – | – | – | – | – | – | – | – | – | 0.767 | 0.717 | 0.859 | 0.874 | 0.958 | – | – | – | – | –
14 | SW 900 | – | – | – | – | – | – | – | – | – | – | 0.493 | 0.489 | 0.509 | 0.389 | 0.372 | – | – | – | – | –
